According to PubChem BioAssay AID1963964 (Molecular Pharmacology Branch, DTP, NCI, 2024):
pIC50: −log10 of the molar value.

Tested on: 997726-040-R-J2-PDC tumor spheroids, viability
Test: Anticancer human tumor 997726-040-R-J2-PDC patient-derived squamous cell lung carcinoma cell line growth inhibition [PI3K]
Conditions: spheroids with HUVEC and MSC; for pIC50: curve of first compound; for viability, T/C: stronger effect = lower value
How it was run: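 Tumor cells were combined with HUVEC and MSCs into spheroids, then dosed with PI3K-inhibitor combinations over half-log ranges capped near clinical Cmax or 10 microM.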

[1] = second compound 0.0316 µM, first compound 0.0316 µM
[2] = second compound 0.0316 µM, first compound 0.1 µM
[3] = second compound 0.0316 µM, first compound 0.316 µM
[4] = second compound 0.0316 µM, first compound 1 µM
[5] = second compound 0.0316 µM, first compound 3.16 µM
[6] = second compound 0.0316 µM, first compound 10 µM
[7] = second compound 0.1 µM, first compound 0.0316 µM
[8] = second compound 0.1 µM, first compound 0.1 µM
[9] = second compound 0.1 µM, first compound 0.316 µM
[10] = second compound 0.1 µM, first compound 1 µM
[11] = second compound 0.1 µM, first compound 3.16 µM
[12] = second compound 0.1 µM, first compound 10 µM
[13] = second compound 0.316 µM, first compound 0.0316 µM
[14] = second compound 0.316 µM, first compound 0.1 µM
[15] = second compound 0.316 µM, first compound 0.316 µM
[16] = second compound 0.316 µM, first compound 1 µM
[17] = second compound 0.316 µM, first compound 3.16 µM
[18] = second compound 0.316 µM, first compound 10 µM
[19] = second compound 1 µM, first compound 0.0316 µM
[20] = second compound 1 µM, first compound 0.1 µM
[21] = second compound 1 µM, first compound 0.316 µM
[22] = second compound 1 µM, first compound 1 µM
[23] = second compound 1 µM, first compound 3.16 µM
[24] = second compound 1 µM, first compound 10 µM
[25] = second compound 3.16 µM, first compound 0.0316 µM
[26] = second compound 3.16 µM, first compound 0.1 µM
[27] = second compound 3.16 µM, first compound 0.316 µM
[28] = second compound 3.16 µM, first compound 1 µM
[29] = second compound 3.16 µM, first compound 3.16 µM
[30] = second compound 3.16 µM, first compound 10 µM
[31] = second compound 10 µM, first compound 0.0316 µM
[32] = second compound 10 µM, first compound 0.1 µM
[33] = second compound 10 µM, first compound 0.316 µM
[34] = second compound 10 µM, first compound 1 µM
[35] = second compound 10 µM, first compound 3.16 µM
[36] = second compound 10 µM, first compound 10 µM
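Also: spheroids exposed to compounds for seven days before readout.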

C#Cc1c(F)ccc2cc(O)cc(-c3ncc4c(N5CC6CCC(C5)N6)nc(OCC56CCCN5CC(F)C6)nc4c3F)c12 (stereo unspecified) + Cc1nc(NC(=O)N2CCCC2C(N)=O)sc1-c1ccnc(C(C)(C)C(F)(F)F)c1
pIC50 (second compound 0.0316 µM): < 5.00
pIC50 (second compound 0.1 µM): < 5.00
pIC50 (second compound 0.316 µM): 6.66
pIC50 (second compound 1 µM): > 7.50
pIC50 (second compound 3.16 µM): > 7.50
pIC50 (second compound 10 µM): > 7.50
viability, T/C [1]: 89.9%
viability, T/C [2]: 88.9%
viability, T/C [3]: 84%
viability, T/C [4]: 81.3%
viability, T/C [5]: 77.9%
viability, T/C [6]: 75.5%
viability, T/C [7]: 77.4%
viability, T/C [8]: 71.4%
viability, T/C [9]: 74.6%
viability, T/C [10]: 79.8%
viability, T/C [11]: 60.9%
viability, T/C [12]: 55%
viability, T/C [13]: 59.6%
viability, T/C [14]: 51.2%
viability, T/C [15]: 51%
viability, T/C [16]: 44.3%
viability, T/C [17]: 42.9%
viability, T/C [18]: 41.9%
viability, T/C [19]: 41.4%
viability, T/C [20]: 39.5%
viability, T/C [21]: 41.7%
viability, T/C [22]: 40.3%
viability, T/C [23]: 40.3%
viability, T/C [24]: 30%
viability, T/C [25]: 30.8%
viability, T/C [26]: 27.2%
viability, T/C [27]: 31.2%
viability, T/C [28]: 28.5%
viability, T/C [29]: 30.5%
viability, T/C [30]: 21.9%
viability, T/C [31]: 15.8%
viability, T/C [32]: 17.6%
viability, T/C [33]: 13.4%
viability, T/C [34]: 17.6%
viability, T/C [35]: 14.1%
viability, T/C [36]: 15.8%

CC(Cn1ccc(-c2ccc(C#N)c(Cl)c2)n1)NC(=O)c1cc(C(C)O)[nH]n1 (stereo unspecified) + Cc1nc(NC(=O)N2CCCC2C(N)=O)sc1-c1ccnc(C(C)(C)C(F)(F)F)c1
pIC50 (second compound 0.0316 µM): < 5.00
pIC50 (second compound 0.1 µM): < 5.00
pIC50 (second compound 0.316 µM): < 5.00
pIC50 (second compound 1 µM): > 7.50
pIC50 (second compound 3.16 µM): > 7.50
pIC50 (second compound 10 µM): > 7.50
viability, T/C [1]: 88.7%
viability, T/C [2]: 92.7%
viability, T/C [3]: 90.5%
viability, T/C [4]: 95.7%
viability, T/C [5]: 86.2%
viability, T/C [6]: 86%
viability, T/C [7]: 76%
viability, T/C [8]: 74.3%
viability, T/C [9]: 80.2%
viability, T/C [10]: 74.3%
viability, T/C [11]: 78.9%
viability, T/C [12]: 72.1%
viability, T/C [13]: 62.5%
viability, T/C [14]: 53.5%
viability, T/C [15]: 59.5%
viability, T/C [16]: 57.5%
viability, T/C [17]: 58.9%
viability, T/C [18]: 54%
viability, T/C [19]: 45%
viability, T/C [20]: 44.7%
viability, T/C [21]: 47.3%
viability, T/C [22]: 39.8%
viability, T/C [23]: 43.1%
viability, T/C [24]: 41.8%
viability, T/C [25]: 29.4%
viability, T/C [26]: 27.1%
viability, T/C [27]: 32%
viability, T/C [28]: 33.4%
viability, T/C [29]: 30.6%
viability, T/C [30]: 26.7%
viability, T/C [31]: 15.4%
viability, T/C [32]: 14.6%
viability, T/C [33]: 16.2%
viability, T/C [34]: 15.1%
viability, T/C [35]: 14.4%
viability, T/C [36]: 9.85%

CC1(C)CCC(Nc2ncc(C(F)(F)F)c(-c3c[nH]c4c(P(C)(C)=O)c(C#N)ccc34)n2)CN1 (stereo unspecified) + Cc1nc(NC(=O)N2CCCC2C(N)=O)sc1-c1ccnc(C(C)(C)C(F)(F)F)c1
pIC50 (second compound 0.0316 µM): > 7.50
pIC50 (second compound 0.1 µM): > 7.50
pIC50 (second compound 0.316 µM): > 7.50
pIC50 (second compound 1 µM): > 7.50
pIC50 (second compound 3.16 µM): > 7.50
pIC50 (second compound 10 µM): > 7.50
viability, T/C [1]: 36.8%
viability, T/C [2]: 27%
viability, T/C [3]: 30.7%
viability, T/C [4]: 29.5%
viability, T/C [5]: 28.8%
viability, T/C [6]: 5.15%
viability, T/C [7]: 27.4%
viability, T/C [8]: 28.1%
viability, T/C [9]: 27.4%
viability, T/C [10]: 29.9%
viability, T/C [11]: 29.9%
viability, T/C [12]: 5.28%
viability, T/C [13]: 23.7%
viability, T/C [14]: 21.8%
viability, T/C [15]: 21.5%
viability, T/C [16]: 24.9%
viability, T/C [17]: 21.8%
viability, T/C [18]: 2.81%
viability, T/C [19]: 16.4%
viability, T/C [20]: 13.5%
viability, T/C [21]: 16%
viability, T/C [22]: 17.5%
viability, T/C [23]: 18.1%
viability, T/C [24]: 1.51%
viability, T/C [25]: 14.2%
viability, T/C [26]: 11.1%
viability, T/C [27]: 11.9%
viability, T/C [28]: 12.9%
viability, T/C [29]: 11.5%
viability, T/C [30]: 1.02%
viability, T/C [31]: 7.35%
viability, T/C [32]: 6.65%
viability, T/C [33]: 6.01%
viability, T/C [34]: 7.48%
viability, T/C [35]: 6.58%
viability, T/C [36]: 0.41%
